IC50 and EC50 data for 19 molecules are collected here from patent publication US20240043427A1 (Gilead Sciences, Inc., priority 2020, published 2024).

Test [1] deals with T1, CD73 (Homo sapiens (Human), UniProt P21589). In kind it is biochemical. Particulars: 1 mM NaH2PO4 in enzyme buffer, CD73 0.3 nM, AMP 15 uM.
Test [2] addresses T1, CD73. As to the kind of experiment: MDA-MB-231 Cell Based CD73 Activity Assay (DMEM). Particulars: MDA-MB-231-GFP cells, DMEM medium with 10% human plasma, 200 uM AMP.

T1 sequence (P21589 27-574): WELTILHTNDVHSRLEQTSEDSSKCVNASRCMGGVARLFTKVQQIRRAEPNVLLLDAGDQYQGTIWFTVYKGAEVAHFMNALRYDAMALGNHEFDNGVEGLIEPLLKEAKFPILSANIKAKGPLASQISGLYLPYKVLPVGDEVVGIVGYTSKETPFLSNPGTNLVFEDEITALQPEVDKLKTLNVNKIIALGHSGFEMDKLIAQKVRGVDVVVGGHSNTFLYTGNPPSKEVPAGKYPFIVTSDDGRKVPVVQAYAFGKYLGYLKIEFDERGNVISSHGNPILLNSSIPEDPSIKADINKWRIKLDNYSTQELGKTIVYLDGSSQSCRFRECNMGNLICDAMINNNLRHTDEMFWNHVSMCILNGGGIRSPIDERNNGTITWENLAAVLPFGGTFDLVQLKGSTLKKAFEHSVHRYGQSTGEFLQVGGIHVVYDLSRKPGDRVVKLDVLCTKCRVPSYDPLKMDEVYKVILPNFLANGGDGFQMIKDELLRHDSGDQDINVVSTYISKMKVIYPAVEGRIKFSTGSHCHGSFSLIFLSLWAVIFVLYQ

As a reminder, the IC50 is the point on the concentration scale where inhibition reaches its midpoint. Low values mean higher potency, high ones lower potency. One may read the EC50 as the concentration at which the effect is half-maximal. A low value points to a more potent agent. For `Cn1ccnc1C(F)(F)COc1cc(-c2c[nH]c(=O)[nH]c2=O)nn2ccnc12` [Example 693, 5-(8-(2,2-difluoro-2-(1-methyl-1H-imidazol-2-yl)ethoxy)imidazo[1,2-b]pyridazin-6-yl)pyrimidine-2,4(1H,3H)-dione], the IC50 on CD73 [1] came to 9.78 nM. On CD73 [2], this molecule gave a half-maximal effective concentration (EC50) of 49.4 nM.
For the molecule `O=c1[nH]cc(-c2cc(N3CC(c4ccccc4)C(F)(F)C3)c3nccn3n2)c(=O)[nH]1` (centres unmarked) [Example 346, 5-(8-(3,3-difluoro-4-phenylpyrrolidin-1-yl)imidazo[1,2-b]pyridazin-6-yl)pyrimidine-2,4(1H,3H)-dione], the IC50 against CD73 [1] amounted to 6.08 nM. In addition, the EC50 at CD73 [2] was 24.4 nM.
The molecule `O=c1[nH]cc(-c2cc([C@H]3C[C@@H]3c3ccc4c(F)nn(CC(F)(F)F)c4c3)c3ncc(Cl)n3n2)c(=O)[nH]1` [Example 721, 5-[3-chloro-8-[(1S,2S)-2-[3-fluoro-1-(2,2,2-trifluoroethyl)indazol-6-yl]cyclopropyl]imidazo[1,2-b]pyridazin-6-yl]-1H-pyrimidine-2,4-dione] yielded an IC50 against CD73 [1] of 0.77 nM. The molecule further came in with an EC50 on CD73 [2] of 0.32 nM.
In the same order, the values of `O=c1[nH]cc(-c2cc([C@H]3C[C@@H]3c3ccc4c(Cl)nn(CC(F)(F)F)c4c3)c3nccn3n2)c(=O)[nH]1` [Example 459, 5-(8-((1S,2S)-2-(3-chloro-1-(2,2,2-trifluoroethyl)-1H-indazol-6-yl)cyclopropyl)imidazo[1,2-b]pyridazin-6-yl)pyrimidine-2,4(1H,3H)-dione] are 0.75 nM and 0.38 nM.
The like results for `O=c1[nH]cc(-c2cc([C@H]3C[C@@H]3c3ccc4cnc(CC(F)(F)F)n4c3)c3nccn3n2)c(=O)[nH]1` (racemic) [Example 605, 5-(8-((1S,2S)-2-(3-(2,2,2-trifluoroethyl)imidazo[1,5-a]pyridin-6-yl)cyclopropyl)imidazo[1,2-b]pyridazin-6-yl)pyrimidine-2,4(1H,3H)-dione] were, in that order, 1.26 nM and 0.12 nM.
In the same order, the values of `O=c1[nH]cc(-c2cc([C@H]3C[C@@H]3c3ccc4c(cnn4CC(F)(F)F)c3)c3ncc(F)n3n2)c(=O)[nH]1` [Example 317, 5-(3-fluoro-8-((1S,2S)-2-(1-(2,2,2-trifluoroethyl)-1H-indazol-5-yl)cyclopropyl)imidazo[1,2-b]pyridazin-6-yl)pyrimidine-2,4(1H,3H)-dione] are 1.01 nM and 2 nM.
As for `O=c1[nH]cc(-c2cc(N3CCC(CO)(CCl)C3)c3nccn3n2)c(=O)[nH]1` (centres unmarked) [Example 652, 5-(8-(3-(chloromethyl)-3-(hydroxymethyl)pyrrolidin-1-yl)imidazo[1,2-b]pyridazin-6-yl)pyrimidine-2,4(1H,3H)-dione], half-maximal inhibition at CD73 [1] (IC50) was put at 19.6 nM. On CD73 [2], the EC50 came out at 79.6 nM.
The molecule `O=c1[nH]cc(-c2cc(N3CC(O)C4(CC4)C3)c3nccn3n2)c(=O)[nH]1` (centres unmarked) [Example 344, 5-[8-(7-hydroxy-5-azaspiro[2.4]heptan-5-yl)imidazo[1,2-b]pyridazin-6-yl]-1H-pyrimidine-2,4-dione] registered an IC50 on CD73 [1] of 38.4 nM. The same molecule came in with an EC50 at CD73 [2] of 97 nM.
In the same order, the values of `O=c1[nH]cc(-c2cc(N3CCC4CC43)c3nccn3n2)c(=O)[nH]1` (centres unmarked) [Example 254, 5-(8-(2-azabicyclo[3.1.0]hexan-2-yl)imidazo[1,2-b]pyridazin-6-yl)pyrimidine-2,4(1H,3H)-dione] are 26.6 nM and 136 nM.
As to `O=c1[nH]cc(-c2cc([C@H]3C[C@@H]3c3ccc4cnn(CC(F)(F)F)c4n3)c3ncc(F)n3n2)c(=O)[nH]1` [Example 610, 5-(3-fluoro-8-((1S,2S)-2-(1-(2,2,2-trifluoroethyl)-1H-pyrazolo[3,4-b]pyridin-6-yl)cyclopropyl)imidazo[1,2-b]pyridazin-6-yl)pyrimidine-2,4(1H,3H)-dione], it took 0.37 nM to reach half-maximal inhibition against CD73 [1] (IC50). The same molecule had an EC50 at CD73 [2] of 0.23 nM.
Consider `N#Cc1ccc([C@H]2C[C@@H]2c2cc(-c3c[nH]c(=O)[nH]c3=O)nn3ccnc23)cc1` [Example 465, 4-((1S,2S)-2-(6-(2,4-dioxo-1,2,3,4-tetrahydropyrimidin-5-yl)imidazo[1,2-b]pyridazin-8-yl)cyclopropyl)benzonitrile], for which half-maximal inhibition at CD73 [1] (IC50) was put at 0.86 nM. For the same molecule, the EC50 on CD73 [2] came to 3.24 nM.
Take `O=c1[nH]cc(-c2cc(N3C[C@H](Oc4ccc(F)c(C(F)F)c4)C(F)(F)C3)c3nccn3n2)c(=O)[nH]1` [Example 745, (S)-5-(8-(4-(3-(difluoromethyl)-4-fluorophenoxy)-3,3-difluoropyrrolidin-1-yl)imidazo[1,2-b]pyridazin-6-yl)pyrimidine-2,4(1H,3H)-dione]: on CD73 [1], half-maximal inhibition (IC50) was put at 0.62 nM. Moreover, at CD73 [2], the midpoint of the response, the EC50, lay at 0.69 nM.
In the same order, the values of `O=c1[nH]cc(-c2cc(N3CCC(C4CC4)C3)c3nccn3n2)c(=O)[nH]1` (centres unmarked) [Example 577, 5-(8-(3-cyclopropylpyrrolidin-1-yl)imidazo[1,2-b]pyridazin-6-yl)pyrimidine-2,4(1H,3H)-dione] are 19.6 nM and 81.2 nM.
In the same order, the values of `CC(C)NC(=O)CCC(F)(F)COc1cc(-c2c[nH]c(=O)[nH]c2=O)nn2ccnc12` [Example 457, 5-((6-(2,4-dioxo-1,2,3,4-tetrahydropyrimidin-5-yl)imidazo[1,2-b]pyridazin-8-yl)oxy)-4,4-difluoro-N-isopropylpentanamide] are 3.52 nM and 9.67 nM.
In the same order, the values of `O=c1[nH]cc(-c2cc([C@H]3C[C@@H]3c3cc4c(cn3)c(F)cn4CC(F)(F)F)c3nccn3n2)c(=O)[nH]1` [Example 706, 5-(8-((1S,2S)-2-(3-fluoro-1-(2,2,2-trifluoroethyl)-1H-pyrrolo[3,2-c]pyridin-6-yl)cyclopropyl)imidazo[1,2-b]pyridazin-6-yl)pyrimidine-2,4(1H,3H)-dione] are 0.33 nM and 0.15 nM.
As for `O=c1[nH]cc(-c2cc([C@H]3C[C@@H]3c3ccc(C(F)F)cc3)c3ncc(F)n3n2)c(=O)[nH]1` [Example 419, 5-(8-((1S,2S)-2-(4-(difluoromethyl)phenyl)cyclopropyl)-3-fluoroimidazo[1,2-b]pyridazin-6-yl)pyrimidine-2,4(1H,3H)-dione], inhibition against CD73 [1] was half-maximal at 1.23 nM (IC50). At CD73 [2], this molecule yielded an EC50 of 8.9 nM.
In the same order, the values of `O=c1[nH]cc(-c2cc([C@H]3C[C@@H]3c3cc(Cl)c4cnn(CC(F)(F)F)c4c3)c3nccn3n2)c(=O)[nH]1` [Example 460, 5-(8-((1S,2S)-2-(4-chloro-1-(2,2,2-trifluoroethyl)-1H-indazol-6-yl)cyclopropyl)imidazo[1,2-b]pyridazin-6-yl)pyrimidine-2,4(1H,3H)-dione] are 0.46 nM and 0.38 nM.
The like results for `O=c1[nH]cc(-c2cc(NCCc3ccccc3F)c3nccn3n2)c(=O)[nH]1` [Example 493, 5-(8-((2-fluorophenethyl)amino)imidazo[1,2-b]pyridazin-6-yl)pyrimidine-2,4(1H,3H)-dione] were, in that order, 194 nM and 837 nM.
In the case of `O=c1[nH]cc(-c2cc(N3CC4CC(C3)C4(F)F)c3nccn3n2)c(=O)[nH]1` [Example 575, 5-(8-(6,6-difluoro-3-azabicyclo[3.1.1]heptan-3-yl)imidazo[1,2-b]pyridazin-6-yl)pyrimidine-2,4(1H,3H)-dione], at CD73 [1], the IC50 worked out at 57.1 nM. This molecule also registered an EC50 at CD73 [2] of 142 nM.
